In the NIST ThermoML archive (doi:10.1021/je301084m):

Assay: wn = mass fraction of the nth substance listed
Details: 101 kPa, Liquid; for viscosity: Capillary tube (Ostwald / Ubbelohde) method; for mass density: Pycnometric method

O=[N+]([O-])[O-].[Li+] [lithium nitrate] + O
Details | mass density [kg/m3] | viscosity [mPa·s]
283.15 K, w1 = 0.3 | 1203 | 2.41
293.15 K, w1 = 0.3 | 1199 | 1.902
293.15 K, w1 = 0.35 | 1236 | 2.241
293.15 K, w1 = 0.4 | 1274 | 2.791
303.15 K, w1 = 0.3 | 1193 | 1.535
303.15 K, w1 = 0.35 | 1231 | 1.85
303.15 K, w1 = 0.4 | 1269 | 2.24
303.15 K, w1 = 0.45 | 1314 | 2.87
303.15 K, w1 = 0.5 | 1358 | 3.839
303.15 K, w1 = 0.55 | 1405 | 5.357
313.15 K, w1 = 0.3 | 1188 | 1.3
313.15 K, w1 = 0.35 | 1225 | 1.552
313.15 K, w1 = 0.4 | 1263 | 1.888
313.15 K, w1 = 0.45 | 1307 | 2.363
313.15 K, w1 = 0.5 | 1352 | 3.114
313.15 K, w1 = 0.55 | 1398 | 4.299
313.15 K, w1 = 0.6 | 1449 | 6.274
323.15 K, w1 = 0.3 | 1179 | 1.112
323.15 K, w1 = 0.35 | 1216 | 1.306
323.15 K, w1 = 0.4 | 1257 | 1.58
323.15 K, w1 = 0.45 | 1300 | 1.994
323.15 K, w1 = 0.5 | 1346 | 2.543
323.15 K, w1 = 0.55 | 1391 | 3.515
323.15 K, w1 = 0.6 | 1440 | 4.961
333.15 K, w1 = 0.3 | 1173 | 0.95
333.15 K, w1 = 0.35 | 1210 | 1.134
333.15 K, w1 = 0.4 | 1250 | 1.356
333.15 K, w1 = 0.45 | 1293 | 1.7
333.15 K, w1 = 0.5 | 1339 | 2.143
333.15 K, w1 = 0.55 | 1384 | 2.926
333.15 K, w1 = 0.6 | 1432 | 4.153
333.15 K, w1 = 0.65 | 1494 | 5.721
343.15 K, w1 = 0.3 | 1166 | 0.826
343.15 K, w1 = 0.35 | 1203 | 0.985
343.15 K, w1 = 0.4 | 1243 | 1.182
343.15 K, w1 = 0.45 | 1286 | 1.479
343.15 K, w1 = 0.5 | – | 1.854
343.15 K, w1 = 0.55 | – | 2.493
343.15 K, w1 = 0.6 | – | 3.472
343.15 K, w1 = 0.65 | – | 4.764
